Test results published in ChEMBL document CHEMBL4665634, “Inhibiting Aβ toxicity in Alzheimer's disease by a pyridine amine derivative” (Eur J Med Chem, 2019).

Key:
[1] = Metal chelating activity assessed as Cu2+-compound complex formation by measuring binding constant in 0.1 M KNO3 at 25 degreeC
[2] = Metal chelating activity assessed as Zn2+-compound complex formation by measuring binding constant in 0.1 M KNO3 at 25 degreeC

c1ccc(CNCc2ccccn2)nc1
log K [1]: 9.3
log K [2]: 7.6
